Assays:
Assay in all cases: relative viability (nuclei count vs DMSO), 5 days (fraction); higher = more cells survive
[1] = compound: C1CNCCC1C2=CC(=NN2)C3=CC=NC=C3 + CC(=O)Nc1cccc(-n2c(=O)n(C3CC3)c(=O)c3c(Nc4ccc(I)cc4F)n(C)c(=O)c(C)c32)c1 [Trametinib] (partner 0.02 µM)
Outline: (§1)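 Each reported value is a median over duplicate plates. It expresses relative viability: treated-well nuclei count divided by vehicle-well nuclei count. Lung cancer cell lines in 1536-well plates were dosed by pin tool a day after seeding, alone with one drug or with a fixed anchor-drug dose plus five library-drug doses (not always all listed) in √10 steps, and nuclei were counted after 5 days.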

[2] = compound: C1CNCCC1C2=CC(=NN2)C3=CC=NC=C3 + Nc1nc2[nH]cc(CCc3ccc(C(=O)N[C@@H](CCC(=O)O)C(=O)O)cc3)c2c(=O)[nH]1 [Pemetrexed] (partner 0.2 µM)
Outline: as §1

[3] = compound: O[C@H]1CC[C@H](Nc2ncc3nc(Nc4c(F)cc(F)cc4F)n([C@H]4CCOC4)c3n2)CC1 [Tanzisertib] + Cc1nc(NC(=O)N2CCC[C@H]2C(N)=O)sc1-c1ccnc(C(C)(C)C(F)(F)F)c1 [Alpelisib] (partner 2 µM)
Outline: as §1

[4] = compound: O[C@H]1CC[C@H](Nc2ncc3nc(Nc4c(F)cc(F)cc4F)n([C@H]4CCOC4)c3n2)CC1 [Tanzisertib] + Nc1ncn([C@H]2C[C@H](O)[C@@H](CO)O2)c(=O)n1 [Decitabine] (partner 2 µM)
Outline: as §1

| Cell Line | relative viability ([1]; first compound 0.08 µM) | relative viability ([1]; first compound 2.53 µM) | relative viability ([1]; first compound 8 µM) | relative viability ([2]; first compound 0.08 µM) | relative viability ([2]; first compound 2.53 µM) | relative viability ([2]; first compound 8 µM) | relative viability ([3]; first compound 0.08 µM) | relative viability ([3]; first compound 0.253 µM) | relative viability ([3]; first compound 0.8 µM) | relative viability ([3]; first compound 2.53 µM) | relative viability ([3]; first compound 8 µM) | relative viability ([4]; first compound 0.08 µM) | relative viability ([4]; first compound 0.253 µM) | relative viability ([4]; first compound 0.8 µM) | relative viability ([4]; first compound 2.53 µM) | relative viability ([4]; first compound 8 µM) | relative viability ([1]; first compound 0.8 µM) | relative viability ([2]; first compound 0.8 µM) |
| --- | --- | --- | --- | --- | --- | --- | --- | --- | --- | --- | --- | --- | --- | --- | --- | --- | --- | --- |
| NCI-H1793 | 0.459 | 0.414 | 0.406 | 0.805 | 0.929 | 0.974 | 0.842 | 0.532 | 0.754 | 0.754 | 0.733 | 0.533 | 0.48 | 0.509 | 0.51 | 0.453 | – | – |
| NCI-H2405 | 0.588 | 0.638 | 0.615 | 1.05 | 1.11 | 1 | 0.933 | 0.696 | 0.805 | 0.83 | 0.547 | 0.784 | 0.783 | 0.76 | 0.914 | 0.629 | 0.631 | 1.1 |
| LCLC-103H | 0.689 | 0.67 | 0.674 | 0.492 | 0.493 | 0.487 | 0.983 | 0.94 | 0.965 | 0.981 | 0.923 | 0.763 | 0.768 | 0.711 | 0.672 | 0.72 | 0.724 | 0.5 |
| NCI-H460 | 0.0741 | 0.158 | 0.188 | 0.0816 | 0.0652 | 0.0683 | 0.716 | 0.441 | 0.477 | 0.356 | 0.286 | 0.54 | 0.465 | 0.479 | 0.467 | 0.497 | 0.122 | 0.066 |
| NCI-H1755 | 0.744 | 0.755 | 0.739 | 0.475 | 0.433 | 0.329 | 1.05 | 0.897 | 0.918 | 0.84 | 0.852 | 0.737 | 0.701 | 0.705 | 0.754 | 0.726 | 0.833 | 0.439 |
| NCI-H358 | 0.12 | 0.136 | 0.169 | 0.181 | 0.178 | 0.157 | 0.902 | 0.762 | 0.922 | 0.717 | 0.635 | 0.232 | 0.221 | 0.189 | 0.248 | 0.181 | 0.128 | 0.176 |
| NCI-H1734 | 0.531 | 0.668 | 0.667 | 0.407 | 0.426 | 0.433 | 0.724 | 0.704 | 0.673 | 0.702 | 0.642 | 0.492 | 0.492 | 0.399 | 0.52 | 0.441 | 0.708 | 0.431 |
| EPLC-272H | 0.283 | 0.319 | 0.344 | 0.298 | 0.38 | 0.412 | 0.998 | 0.942 | 0.951 | 1.01 | 0.971 | 0.43 | 0.366 | 0.43 | 0.381 | 0.353 | 0.278 | 0.317 |
| NCI-H2126 | 0.582 | 0.543 | 0.564 | 0.643 | 0.694 | 0.728 | 0.775 | 0.749 | 0.749 | 0.725 | 0.736 | 0.558 | 0.586 | 0.574 | 0.592 | 0.658 | 0.564 | 0.625 |

— the supplement of paper PMC10307832
